Test results published in US20260158025A1, “COMPOUNDS AND COMBINATIONS THEREOF FOR TREATING NEUROLOGICAL AND PSYCHIATRIC CONDITIONS” (priority 2024, published 2026).
Entries after “also recorded” stand apart in the source; their conditions may differ. Where a name gives a salt, the structure may show the parent alone.

What was measured:
[1] = Pharmacokinetics of the subject combination in moderate renal impairment
Excerpt: (§1) Data are GMRs and 90% CIs. References used are the matched healthy subjects for renal and hepatic impairment studies, and extensive or ultra-extensive CYP2D6 metabolizers respectively.

[2] = Effect of food on pharmacokinetics of the subject combination; format: in vivo, human; settings: subject combination administered with food
[3] = Co-administration of the subject combination with paroxetine / strong CYP2D6 inhibitor; settings: subject combination plus strong CYP2D6 inhibitor
Excerpt: In some embodiments, the patients are monitored for adverse reactions potentially attributable to dextromethorphan, such as somnolence and dizziness.

[4] = Steady state pharmacokinetics after administration of the subject combination; settings: for Cmax relative to the peak level of bupropion: after administration of the subject combination
[5] = Pharmacokinetics of the subject combination in CYP2D6 poor metabolizers; settings: steady state, hydrobromide monohydrate
Excerpt: Approximately 7% to 10% of Caucasians and 3% to 8% of African Americans lack the capacity to metabolize CYP2D6 substrates and are classified as poor metabolizers.
as §1

[6] = clinical trials; cited from earlier work
[7] = clinical trials; cited from earlier work; remark: listed apart in the source

CC(NC(C)(C)C)C(=O)c1cccc(Cl)c1.Cl (racemic) [bupropion, (±)-1-(3-chlorophenyl)-2-[(1,1-dimethylethyl)amino]-1-propanone hydrochloride]
increase in exposure vs matched controls with normal renal function ([1]; human, in vivo): approximately 2 fold | reduction in clearance vs matched controls with normal renal function ([1]; human, in vivo): 50%

COc1ccc2c(c1)[C@]13CCCC[C@@H]1[C@H](C2)N(C)CC3 [dextromethorphan, morphinan, 3-methoxy-17-methyl-, (9α, 13α, 14α), hydrobromide monohydrate]
change of Cmax with food [2]: unchanged | plasma concentrations on concomitant use with a strong CYP2D6 inhibitor [3]: increases plasma concentrations | increase in mean elimination half-life compared to dextromethorphan given without bupropion ([4]; 8 days of the subject combination, extensive metabolizers): approximately 3 fold | pharmacokinetics at steady state (dose proportionality) ([4]; co-administered with bupropion, dextromethorphan 30 to 60 mg, bupropion 75 to 150 mg): nonlinear pharmacokinetics | plasma concentrations in poor metabolizers compared with non-poor metabolizers [5]: increases plasma concentrations; also recorded: generally higher | reduction in clearance vs matched controls with normal renal function ([1]; moderate renal impairment (GFR 30-60 mL/min)): 50% | increase in exposure vs matched controls with normal renal function ([1]; moderate renal impairment (GFR 30-60 mL/min), 7 subjects vs 6 controls): approximately 2 fold

CC(NC(C)(C)C)C(O)c1cccc(Cl)c1 (stereo not drawn) [erythrohydroxybupropion]
Cmax relative to the peak level of bupropion [4]: approximately equal to

CN[C@]1(c2ccccc2Cl)CCCCC1=O [esketamine, Esketamine]
patients who developed dissociative or perceptual changes based on CADSS [6]: 61% to 84 | patients who developed sedation based on MOAA/S [7]: 48% to 61 | patients who experienced loss of consciousness (MOAA/S score of 0) [7]: 0.3% to 0.4

C[C@H]1NC(C)(C)CO[C@]1(O)c1cccc(Cl)c1 [hydroxybupropion]
Cmax relative to the peak level of bupropion [4]: approximately 14 times

C[C@H](NC(C)(C)C)[C@@H](O)c1cccc(Cl)c1 [threohydroxybupropion]
Cmax relative to the peak level of bupropion [4]: about 5 times
